Results from ChEMBL document CHEMBL1121533, “Synthesis of 8-methoxy-15,16-dinor-6,8,10-trichothecatriene 12,13 alpha-epoxide and 12,13 beta-epoxide as potential antineoplastic agents” (J Med Chem, 1980).
Converted amounts (≈) assume the structure as drawn. The source made the active and inactive calls. The calls are words filed in the database; no cut-off is given here.

What was measured:
[1] = Tested for in vitro cytotoxic potency of compound in 9KB assay; format: cell-based; conditions: human, KB (9KB) cells; read-out: ED50 (the source's name)
P388 [2] = experiment: Tested for in vivo antileukemic activity of compound against P388 at 12.5 mg/kg dose; NA means Not Active; format: functional, organism-based; parameters: dose 12.5 mg/kg; conditions: Mus musculus
P388 [3] = experiment: Tested for in vivo antileukemic activity of compound against P388 at 25 mg/kg dose; NA means Not Active; format: functional, organism-based; parameters: dose 25 mg/kg; conditions: Mus musculus
P388 [4] = experiment: Tested for in vivo antileukemic activity of compound against P388 at 50 mg/kg dose; NA means Not Active; format: functional, organism-based; parameters: dose 50 mg/kg; conditions: Mus musculus

In the case of COc1ccc2c(c1)[C@@]1(C)CC[C@@H](O2)C12CC2, the CC50 [1] is reported as 26 µg/mL (≈ 113 µM), the ED50 (P388 [2]) is reported as “inactive” and the ED50 (P388 [3]) is reported as “inactive”. For the same molecule, the ED50 (P388 [4]) was “inactive”.
